Data: patent US20040235873A1, “Antiinflammatoric and antitussive compositions” (priority 2001, published 2004)

Tests used:
Assay type in all cases: in vivo, Hartley male guinea pigs
[1] = test system: ovalbumin (OA)-sensitized guinea pigs; assay: Cell invasion in bronchovesicular washing fluid (BALF) of ovalbumin-sensitized guinea pigs after antigen induction; conditions: for Number of eosinophils invaded in BALF / Number of the total cells invaded in BALF: 24 hours after induction
Method: The present test was carried out according to the method mentioned below, with reference to the method of Lagente et al [Clin. Exp. Allergy, 23, 1002-1010 (1993)] and the method of Dunn et al [Am. Rev. Resp. Dis., 137, 541-547 ([…])].
Hartley male guinea pigs (from Nippon Charles River) were raised at a constant temperature (22 to 23° C.) and a constant humidity (50 to 60%) and healthy animals of those having a body weight of from 350 to 450 g were used in the test. The guinea pigs were put in a plastic box (30×50×30 cm), and made to inhale 2 mg/ml of a solution of ovalbumin (hereinafter sometimes abbreviated to OA, from Sigma Aldrich) for30minutes, twice at an interval of 48 hours for […] sensitization. An ultrasonic nebulizer (NE-U12, by Omron) was used for the inhalation. Antigen induction in the test animals was carried out 13 to 15 days after the final sensitization, in the same plastic box as that for the sensitization. For it, the test animals were made to inhale 1% (w/v) OA solution for 15 minutes to induce reaction. Those of the control group with no OA inhalation were made to inhale saline.
In this stage, a histamine H1-receptor antagonist, pyrilamine (by Sigma Aldrich) was intravenously administered (2 mg/kg) to the test animals 30 minutes before the antigen induction, for evading animal death owing to anaphylactic shock. Orotic acid, zinc orotate and a PDE4 inhibitor (rolipram, obtained through chemical synthesis) were orally administered one hour before the antigen induction. To those of the control group not administered with orotic acid, zinc orotate or rolipram, 0.5% (w/v) MC solution was administered.
24 to 72 hours after the antigen induction, the bronchovesicles of the test animals were washed (BAL). Namely, the sensitized guinea pigs were anesthetized with pentobarbital (intravenous-administration, 100 mg/kg), and 5 ml of saline was injected into the guinea pigs via a tracheal cannula through a disposable syringe (by Terumo). In about 5 seconds, the saline injected into the guinea pigs was recovered. This operation was repeated twice to collect the bronchovesicular washing fluid (BALF). BALF was centrifuged at 2500 rpm (1250 ×g) at 4° C. for 10 minutes. The supernatant was removed by suction, and the deposited cells were suspended in one ml of saline. In the suspension, the number of all leucocytes was counted with an automatic cell counter (Celltec MEK-4300, by Nippon Kodensha). A part of the cells were formed into a smear with Cytospin III (by Shand on Southern Instruments). […] Specifically, eosinophils (Eos), neutrophils (Neu), macrophages (Mac), lymphocytes (Lym) and other cells (Other) were counted, and their ratio was calculated. The number of the respective cells was calculated by multiplying the number of all leucocytes by the ratio of the cells counted in the fraction.
The data obtained were expressed as the mean value±standard error thereof. A statistical analysis soft SAS was used for significance test. For significance test of the two groups, Student's t-test was carried out; and for comparison test of multiple groups, Bartlet test was followed by 1-way ANOVA and Dunnett's multiple comparison test. […]
Orotic acid was orally administered 1 hour before the OA inhalation. The data obtained are expressed as the mean value ±standard error of 9 or 10 cases.
Zinc orotate was orally administered 1 hour before the OA inhalation. The data obtained are expressed as the mean value±standard error of 9 or 10 cases. […]

[2] = test system: ACh-induced airway contraction in guinea pigs; assay: Acetylcholine-induced pulmonary inflation pressure change before and after saline inhalation (preliminary test); conditions: for PIP increase (ΔPIP) induced by intravenous ACh, Post value / PIP increase (ΔPIP) induced by intravenous ACh, Pre value / Difference between Pre value and Post value of ACh-induced PIP increase: 30 mg/kg to the duodenum prior to saline inhalation; for PIP increase (ΔPIP) induced by intravenous ACh, Post value: after saline inhalation; for PIP increase (ΔPIP) induced by intravenous ACh, Post value / PIP increase (ΔPIP) induced by intravenous ACh, Pre value: mean±standard error of three cases; for PIP increase (ΔPIP) induced by intravenous ACh, Pre value: before saline inhalation; for Difference between Pre value and Post value of ACh-induced PIP increase: paired t-test
Method: (§1) Hartley male guinea pigs (from Nippon SLC) were raised at a constant temperature (22 to 23° C.) and a constant humidity (50 to 60%) for 2 weeks, and healthy animals of those having a body weight of from 150 to 250 g were used in the test. The guinea pigs were anesthetized with urethane (1.2 g/kg) and subjected to tracheotomy and cannulation. The tracheal cannula was connected to an artificial respiration device for small animals (Model 7025, UGO BASIL by VARASE), and artificial respiration (breathing rate, 60/min; 10 ml/kg) was performed. As an airway contraction index thereof, the pulmonary inflation pressure (hereinafter abbreviated to […], its unit being cmH2O) of the test animal was measured via a pressure transducer (TP-603, by Nippon Kodensha). In addition, a cannula was inserted into the carotid […] of the test animal, and the blood pressure through it was also measured via a pressure transducer (Life KitDX-360, by Nippon Kodensha). After the operation, the guinea pigs were left as such for about 5 minutes, and after the base PIP thereof was stabilized, the test with them was started. 50 μg/kg acetylcholine (hereinafter referred to as ACh, by Sigma) was intravenously administered to each test animal to induce airway contraction therein. After the elevated PIP was lowered to the base line thereof, ACh of the same concentration was again intravenously administered. This operation was repeated until the PIP increase (ΔPIP) was stabilized. After the ΔPIP stabilization was confirmed, ACh was intravenously administered
(§2) (30 μg/kg or 40 μg/kg), and the value ΔPIP in this stage was referred to as a Pre value. 30 minutes thereafter, each test animal was made to inhale 0.1 µg/ml of LTD4 (by Funakoshi) for 30 seconds via an ultrasonic nebulizer (NE-U12, by Omron), and after 15 minutes, ACh was again intravenously administered (30 μg/kgor40μg/kg) to each test animal to induce airway contraction therein. The value ΔPIP in this stage was rendered as a Post value. Relative to those of the LTD4 administration group, the animals of the control group were made to inhale saline in place of LTD4. The Post value and the Pre value were compared with each other in the control group and the LTD4 administration group, and the difference was an index of airway hypersensitiveness expression.
(§3) 30 minutes before the start of the LTD 4 inhalation, a test substance was administered to the duodenum of each test animal. In place of the test substance, 0.5% methyl cellulose (hereinafter abbreviated to MC) was administered to the animals of the control group relative to those of the test substance-administration group.
(§4) The data obtained were expressed as the mean value±standard error thereof. A statistical analysis soft SAS was used for significance test. For significance test of two groups, paired t-test was carried out (FIG. 1, FIG. 2); and for comparison test of multiple groups, Bartlet test was followed by 1-way ANOVA and Dunnett's multiple comparison test. In every test, p<0.05 indicates a significant difference.
The PIP increase (Pre value, white column) induced by the intravenous ACh administration (40 µg/kg) was 8.40±0.76 cmH2O; while the PIP increase (Post value, black column) after the inhalation of saline, as used for a solvent for LTD4 was 8.30±1.07cmH2.
Orotic acid and zinc orotate each were suspended in 0.5% MC just before use.
Orotic acid, zinc orotate (30 mg/kg) or 0.5% MC was intraduodenally administered 30 minutes before the inhalation of saline. The data obtained are expressed as the mean value±standard error of three cases. N.S. (not significant) indicates no statistically significant difference.

[3] = test system: LTD4-induced airway hypersensitiveness in guinea pigs; assay: LTD4-induced airway hypersensitive reaction; conditions: for ID50 of airway hypersensitiveness inhibition: intraduodenal administration 30 minutes before LTD4 inhalation, guinea pigs; for Airway hypersensitiveness inhibition versus control group: orotic acid 10 to 30 mg/kg, zinc orotate 10, 30 mg/kg to the duodenum
Method: This was to confirm the presence or absence of antiasthmatic effect of orotic acid and zinc orotate. Concretely, the effect of orotic acid and zinc orotate against leukotriene D4 (hereinafter abbreviated to LTD4)-induced airway hypersensitive reaction was investigated in the manner described below.
Expression of LTD4-induced airway hypersensitiveness was carried out according to the method of Sato et al [Clinical and Experimental Allergy, 26, 957-963 (1996)], as shown below:
as §1, §2, §3
as §4, with “In every test, p<0.05 indicates a significant difference.” left out

[4] = 100 mg/kg orally 1 hour before OA antigen induction
[5] = 100 or 300 mg/kg orally 1 hour before OA antigen induction

Row | Compound | Number of eosinophils invaded in BALF [1, 4] | Number of the total cells invaded in BALF [1, 4] | PIP increase (ΔPIP) induced by intravenous ACh, Post value [2] [cmH2O] | PIP increase (ΔPIP) induced by intravenous ACh, Pre value [2] [cmH2O] | Difference between Pre value and Post value of ACh-induced PIP increase [2] | Influence on ACh-induced airway contraction ([2]; FIG. 1, 30 mg/kg intraduodenal) | Statistical significance of airway hypersensitiveness inhibition ([3]; dose of 30 mg/kg to the duodenum, versus MC control, p<0.05) | ID50 of airway hypersensitiveness inhibition [3] [mg/kg] | Airway hypersensitiveness inhibition versus control group [3] | Effect against cell invasion, 24 hours compared with 48 hours after antigen induction ([1]; orally one hour before antigen induction, not illustrated) | Number of eosinophils invaded in BALF [1, 5] | Number of the total cells invaded in BALF [1, 5]
1 | O=C(O)c1cc(=O)[nH]c(=O)[nH]1 [orotic acid, uracil-4-carboxylic acid] | decreased | decreased | 7.33±1.20 | 7.50±1.04 | no significant difference | did not have any influence on airway contraction | showed a statistical significance | 20.1 | showed airway hypersensitiveness inhibition that depends on the increase in the dose | – | – | –
2 | COc1ccc(C2CNC(=O)C2)cc1OC1CCCC1 (centres unmarked) [rolipram, reference compound] | – | – | – | – | – | – | – | – | – | any significant difference in the cell invasion was not found between 24 hours and 48 hours | – | –
3 | zinc orotate | – | – | 8.00±1.44 | 7.67±1.20 | no significant difference | – | – | 16.2 | showed airway hypersensitiveness inhibition that depends on the increase in the dose | – | decreased | decreased
